Measured values taken from patent US4477670A, “4-Aryloxy-1,2,3,4-tetrahydroisoquinolines” (Hoechst-Roussel Pharmaceuticals Inc., priority 1982, dated 1984).
Structures can show the parent of a compound that is named as a salt. Where two headings read alike, the source gives them in different places.

Columns and labels:
[1] = tested on: phenyl-para-quinone induced writhing; experiment: phenyl-para-quinone writhing assay in mice (analgesia); format: in vivo; details: subcutaneous
Description: The compounds of the invention are primarily useful as analgesic and anticonvulsant agents. […] Exptl. Biol. Med., 95, 729 (1953)]. Listed below in Table III is the analgesic effect of some of the compounds of the invention, expressed as percent inhibition of phenyl-para-quinone induced writhing.

[2] = tested on: supra maximal electroshock (extensor tonus); experiment: supra maximal electroshock assay (anticonvulsant); format: in vivo, male mice (Charles River, CD-1); details: Mus musculus, ip, read-out: % Inhibition (anticonvulsant effect)
Experimental: The compounds of the present invention are also useful as anticonvulsant agents for mammals as evidenced by the supra maximal electroshock assay of Woodbury, L. A. and Davenport, U. D. in Arch. Int. Pharmacodynam, Vol. 92 (1952) at pages 97-107.
In this method, groups of male mice are used (Charles River, CD-1), 18-30 grams. Drugs are prepared using distilled water and if insoluble, a surfactant is added. Control animals receive vehicle. Drugs are routinely administered intraperitoneally. The route of administration may be varied (orally, subcutaneously). The dosage volume is 10 ml/kg.
The animal's eyes are placed across the output terminals of an A.C. shocker that delivers 205 volts rms for 300 milliseconds. Electrode paste coats the animal's eyes at the point of contact with the terminals.
Protection is expressed as normalized percent inhibition relative to vehicle control.
A time response is carried out using 6 animals per group. Animals are tested at 30, 60 and 120 minutes post-drug. Additional time periods are tested if indicated by previous tests.
Listed below in Table II is the anticonvulsant effect of some of the compounds of the invention expressed as percent inhibition.

[3] = diuretic activity in rats, drug to urea ratio; format: in vivo, female Wistar rats; details: oral, urine 0-5 hours, vs urea 1000 mg/kg
Experimental: Selected compounds of the present invention are useful as diuretics. The diuretic activity of the compounds is measured in the following manner. Groups of female Wistar rats (150-200 grams) are used and they are food deprived 16 hours prior to testing. Drugs are prepared in 1% saline and administered in a dosage volume of 15 ml/kg orally. After dosing each animal is placed in an individual metabolic cage. Water is permitted ad libitum. Urine is collected from 0-5 hours after dosing. […] The individual urine samples are analyzed for sodium and/or potassium and chloride. Sodium and potassium values are typically determined using a flame photometer. Chloride determinations are typically made by a chloride analyzer. Sodium, potassium and chloride values are expressed as the mean milliequivalents (mEq)/kg/5 hrs. Diuresis is expressed as the mean milliliters (ml)/kg/5 hrs. The mean values obtained for sodium, potassium, chloride and diuresis are expressed in a ratio to the sodium, potassium, chloride and diuresis values obtained for the urea treated group. This ratio is called the "drug to urea ratio." A drug to urea ratio greater than or equal to one for diuresis and/or sodium is indicative of diuretic activity. The diuretic effect of some of the compounds of the invention, expressed as the ratio of (a) the mean values obtained for diuresis (urine volume) of the compound treated group to the urea treated group and (b) the mean values obtained for sodium of the compound treated group to the urea treated group, are given in Table I.

[4] = tested on: ptosis of tetrabenazine-induced depression; experiment: inhibition of tetrabenazine-induced depression (ptosis) in mice; format: in vivo; details: intraperitoneal
[5] = tested on: 5-HTP activity (continuous forelimb clonus); experiment: L-5-hydroxytryptophan (5 HTP) potentiation in rats; format: in vivo, male Wistar rats; details: Rattus norvegicus, ip
Experimental: Groups of six male Wistar rats (150-200 grams) are used in this test procedure. Four hours prior to testing pargyline HCl is prepared and administered by subcutaneous injection at 75 mg/kg in 1% saline and at a dosage volume of 1.25 ml/kg. Thirty minutes before testing, drugs are prepared using distilled water and, if insoluble, a suitable surfactant is added. Control groups receive vehicle. Drugs are routinely administered intraperitoneally (i.p.) at a dosage volume of 10 ml.kg. L-5-Hydroxytryptophan is prepared at 1.0 mg/kg in distilled water and is administered i.p. in volumes proportional to 10 ml/kg. Drugs are administered in a randomized manner and 5-minute post 5-HTP treatment the animals are observed for 15 minutes. […] Potentiation is expressed as normalized percent potentiation relative to vehicle control. When a compound is observed to potentiate 5-HTP activity, a dose range using ten animals per group is run in the same manner. An effective dose (ED) is determined by probit analysis.

[6] = intraperitoneal, probit analysis, read-out: ED50 (5-HTP potentiation)

Q: For “1,2,3,4-tetrahydro-4-(p-trifluoromethylphenyl)isoquinoline hydrochloride”, which “% Inhibition of phenyl-para-quinone induced writhing” value (“% Inhibition” for short) ([1]; 25.0 mg/kg) is on record?
A: 51%

Q: For FC(F)(F)c1cccc(OC2CNCc3ccccc32)c1 (stereo not drawn) [1,2,3,4-Tetrahydro-4-(m-trifluoromethylphenoxy)isoquinoline maleate], which inhibition in vivo at 21 mg/kg ([2]; intraperitoneal, 21.0 mg/kg) is on record?
A: 50%

Q: For FC(F)(F)c1ccc(OC2CNCc3ccccc32)cc1 (stereo not drawn) [1,2,3,4-Tetrahydro-4-(p-trifluoromethylphenoxy)isoquinoline hydrochloride], which inhibition in vivo at 35 mg/kg ([2]; intraperitoneal, 35.0 mg/kg) is on record?
A: 50%

Q: With CN(C)CCN1Cc2ccccc2C(Oc2ccc(C(F)(F)F)cc2)C1 (stereo not drawn) [2-(2-N,N--dimethylaminoethyl)-1,2,3,4-tetrahydro-4-(p-trifluoromethylphenoxy)isoquinoline] as the compound, how does the “Diuresis Drug to Urea Ratio (Vol.)” value ([3]; 25 mg/kg) read?
A: 1.1

Q: What about the “Sodium Drug to Urea Ratio” value ([3]; 25 mg/kg) of the same compound?
A: 1.4

Q: For CCN(CC)CCN1Cc2ccccc2C(Oc2ccc(C(F)(F)F)cc2)C1 (stereo not drawn) [2-(2-N,N-Diethylaminoethyl)-4-(p-trifluoromethylphenoxy)-1,2,3,4-tetrahydroisoquinoline dioxalate], which “% Inhibition” value ([1]; 21.8 mg/kg) is on record?
A: 50%

Q: And the inhibition in vivo at 14.8 mg/kg ([2]; intraperitoneal, 14.8 mg/kg)?
A: 50%

Q: And the “Diuresis Drug to Urea Ratio (Vol.)” value ([3]; 25 mg/kg)?
A: 1.4

Q: And the “Sodium Drug to Urea Ratio” value ([3]; 25 mg/kg)?
A: 1.0

Q: Which “% Inhibition” value ([1]; 14.4 mg/kg) does the source give for CN(C)CCN1Cc2ccccc2C(Oc2ccc(C(F)(F)F)cc2)C1 (stereo not drawn) [2-(2-N,N-Dimethylaminoethyl)-4-(p-trifluoromethylphenoxy)-1,2,3,4-tetrahydroisoquinoline dihydrochloride] here?
A: 50%

Q: What about the inhibition in vivo at 10.3 mg/kg ([2]; intraperitoneal, 10.3 mg/kg) of the same compound?
A: 50%

Q: Which “% Inhibition” value ([1]; 25.0 mg/kg) does the source give for CN(C)CCCN1Cc2ccccc2C(Oc2cccc(C(F)(F)F)c2)C1.O=C(O)/C=C\C(=O)O.O=C(O)/C=C\C(=O)O (stereo not drawn) [2-(3-Dimethylaminopropyl)-1,2,3,4-tetrahydro-4-(m-trifluoromethylphenoxy)isoquinoline dimaleate] here?
A: 53%

Q: And the inhibition in vivo at 50 mg/kg ([2]; intraperitoneal)?
A: 100%

Q: For CN(C)CCCN1Cc2ccccc2C(Oc2ccc(C(F)(F)F)cc2)C1 (stereo not drawn) [2-(3-Dimethylaminopropyl)-1,2,3,4-tetrahydro-4-(p-trifluoromethylphenoxy)isoquinoline dihydrochloride], which inhibition in vivo at 14.4 mg/kg ([2]; intraperitoneal, 14.4 mg/kg) is on record?
A: 50%

Q: Which “% Inhibition” value ([1]; 14.7 mg/kg) does the source give for CN(C)CCCN1Cc2ccccc2C(Oc2ccc([N+](=O)[O-])cc2)C1 (stereo not drawn) [2-(3-N,N-dimethylaminopropyl)-4-(p-nitrophenoxy)-1,2,3,4-tetrahydroisoquinoline dihydrochloride] here?
A: 50%

Q: Which “% Inhibition” value ([1]; 15.4 mg/kg) does the source give for FC(F)(F)c1ccc(OC2CN(CCCN3CCCCC3)Cc3ccccc32)cc1.O=C(O)C(=O)O.O=C(O)C(=O)O (stereo not drawn) [2-(3-Piperidinopropyl)-1,2,3,4-tetrahydro-4-(p-trifluoromethylphenoxy)isoquinoline dioxalate] here?
A: 50%

Q: And the “Diuresis Drug to Urea Ratio (Vol.)” value ([3]; 10 mg/kg)?
A: 1.6

Q: What about the “Sodium Drug to Urea Ratio” value ([3]; 10 mg/kg) of the same compound?
A: 2.2

Q: With CN1Cc2ccccc2C(Oc2cccc(C(F)(F)F)c2)C1.O=C(O)/C=C\C(=O)O (stereo not drawn) [2-Methyl-1,2,3,4-tetrahydro-4-(m-trifluoromethylphenoxy)isoquinoline maleate] as the compound, how does the inhibition in vivo at 50 mg/kg ([2]; intraperitoneal) read?
A: 67%

Q: What about the “inhibition of the ptosis of tetrabenazine-induced depression” value ([4]; 20 mg/kg) of the same compound?
A: 50%

Q: And the ED50 [5, 6]?
A: 7.8 mg/kg

Q: For CN1Cc2ccccc2C(Oc2ccc([N+](=O)[O-])cc2)C1 (stereo not drawn) [2-Methyl-4-(p-nitrophenoxy)-1,2,3,4-tetrahydroisoquinoline], which “inhibition of the ptosis of tetrabenazine-induced depression” value ([4]; 20 mg/kg) is on record?
A: 30%

Q: What about the ED50 [5, 6] of the same compound?
A: 4.5 mg/kg

Q: For Clc1ccc(OC2CNCc3ccccc32)cc1 (stereo not drawn) [4-(p-Chlorophenoxy)-1,2,3,4-tetrahydroisoquinoline hydrochloride], which inhibition in vivo at 23.4 mg/kg ([2]; intraperitoneal, 23.4 mg/kg) is on record?
A: 50%

Q: For CN(C)CCCN1Cc2ccccc2C(Oc2ccc(Cl)cc2)C1 (stereo not drawn) [4-(p-Chlorophenoxy)-2-(3-dimethylaminopropyl)-1,2,3,4-tetrahydroisoquinoline dimaleate], which inhibition in vivo at 50 mg/kg ([2]; intraperitoneal) is on record?
A: 100%

Q: Which results are given for CN1Cc2ccccc2C(Oc2ccc(C#N)cc2)C1 (stereo not drawn) [4-(p-Cyanophenoxy)-2-methyl-1,2,3,4-tetrahydroisoquinoline]?
A: Diuresis Drug to Urea Ratio (Vol.) ([3]; 50 mg/kg): 1.1; Sodium Drug to Urea Ratio ([3]; 50 mg/kg): 1.2

Q: For O=C(O)/C=C\C(=O)O.O=[N+]([O-])c1ccc(OC2CNCc3ccccc32)cc1 (stereo not drawn) [4-(p-Nitrophenoxy)-1,2,3,4-tetrahydroisoquinoline maleate], which “% Inhibition” value ([1]; 25.0 mg/kg) is on record?
A: 65%

Q: With CN1Cc2ccccc2C(Oc2ccc(C(F)(F)F)cc2)C1 (stereo not drawn) [4-(p-Trifluoromethylphenoxy)-2-methyl-1,2,3,4-tetrahydroisoquinoline oxalate] as the compound, how does the inhibition in vivo at 50 mg/kg ([2]; intraperitoneal) read?
A: 50%

Q: What does the source list for CN(C)CCC=C1c2ccccc2CCc2ccccc21 [Amitriptyline, reference compound]?
A: inhibition of the ptosis of tetrabenazine-induced depression ([4]; 2 mg/kg): 50%; ED50 ([5]; standard, unit inferred, read-out: ED50 (5-HTP potentiation), standard): 7.1 mg/kg

Q: For CNC1=Nc2ccc(Cl)cc2C(c2ccccc2)=[N+]([O-])C1 [Chlorodiazepoxide, reference compound], which inhibition in vivo at 8 mg/kg [2] is on record?
A: 50%

Q: For CN1C(=O)CN=C(c2ccccc2)c2cc(Cl)ccc21 [Diazepam, reference compound], which inhibition in vivo at 1.7 mg/kg [2] is on record?
A: 50%

Q: For C=C(CC)C(=O)c1ccc(OCC(=O)O)c(Cl)c1Cl [ethacrynic acid, reference compound], which “Diuresis Drug to Urea Ratio (Vol.)” value ([3]; 64 mg/kg) is on record?
A: 2.5

Q: Which “Diuresis Drug to Urea Ratio (Vol.)” value ([3]; 64 mg/kg) does the source give for O=C(O)COc1ccc(C(=O)c2cccs2)c(Cl)c1Cl [tienilic acid, reference compound] here?
A: 1.8

Q: With Propoxyphene [reference compound] as the compound, how does the “% Inhibition” value ([1]; 3.9 mg/kg) read?
A: 50%
